What was measured:
CYP2B6 = assay type: cell-based; conditions: human, hepatocytes
Procedure: HPH were obtained from BIOIVT (Baltimore, Md.) and seeded at 1.5×10^6 or 7.5×10^5 cells/well in 6- or 12-well collagen I-coated plates, while 24-well collagen I-coated plates were seeded at 3.75×10^5 cells/well as described previously. 24 hours after seeding, HPH were cultured cells were overlaid with 0.25 mg/mL Matrigel Corning, Corning, N.Y.) 24 h after seeding in serum-free William's E Medium (WEM) supplemented with ITS+(insulin, transferrin, and selenium, 100×; […] Millipore Sigma), 100 U/ml penicillin, and 100 μg/ml streptomycin (Pen-Strep; ThermoFisher Scientific, Waltham, Mass.), and 2 mM L-glutamine (Invitrogen, Carlsbad, Calif.). Overlaid HPH were treated with compounds in Complete WEM (CYP2B6 and CYP3A4 studies and coculture studies). After 24 h treatment, HPH, BT549, MDA-MB-231, and H9c2 cells were washed and a phenol-chloroform extraction was used to isolate total RNA with the TRIzol reagent (ThermoFisher, Rockford, Ill.). Reverse transcription was performed on extracted RNA (1 μg) to produce cDNA using the High Capacity cDNA Archive kit according to manufacturer's instructions (Applied Biosystems, Foster, Calif.). […] Quantification of expression changes was done by the 2^ΔΔCt method, normalizing to GAPDH as the housekeeping gene and determining the fold change compared to control values (n=3). […]

H9c2 cells [1] = assay: Cell viability assay, DOX-induced toxicity in H9c2 cells; assay type: cell-based, rat
Procedure: H9c2 cells were seeded 0.8×10^5 in 24-well plates. Following cell attachment, a 2 h pre-treatment with vehicle control (0.1% DMSO), SFN (2.5 μM) or DL7076 (1 μM, 5 μM, or 10 μM) was done followed by doxorubicin (2.5 μM) exposure for 22 h. Co-culture cells were assembled and treated with cyclophosphamide and doxorubicin as indicated. A Cell Counting Kit-8 (Enzo) assay was carried out. Cell viability was described as a percent of vehicle control (0.1% DMSO). Cardiomyocyte, human iPSC-derived cardiomyocytes, and BT549 viability was determined with a 1 hr incubation of 6% CCK8 in WEM.

H9c2 cells [2] = assay: Phosphorylated H2AX imaging, H9c2 cells from multi-organ co-culture; assay type: cell-based, rat; conditions: CPA/DOX + DL7076
Procedure: Additionally, HPH were cultured in collagen-coated 6-well plates and pre-treated as described in the previous co-culture system. BT549 and H9c2 cells were plated on similar modified coverslips 0.8×10^5 cells and allowed to attach for 24 hours during hepatocyte pre-treatment. […] Following pre-treatment, BT549 coverslips were inserted adjacent to H9c2 coverslips over the sandwich cultured HPH as depicted in FIG. 43a. […] Both BT549 and H9c2 cells were harvested at indicated time points and assess for viability, apoptosis, and DNA damage as detailed further. […] Cells were fixed using 4% paraformaldehyde in PBS for 15 minutes followed by permeabilization with 0.5% Triton-X 100 in PBS for an additional 15 minutes at room temperature. Prior to blocking with 5% Bovine Serum Albumin (BSA), 3 washes with PBS were done to remove excess Triton-X. Primary antibody to mouse anti-phospho-H2AX ([…], clone JBW301, Millipore, 1:500 dilution) was prepared in PBS with 3% BSA and 0.3% Triton-X 100 and incubated overnight. […] The coverslips were visualized at 10× magnification using fluorescence microscopy (Nikon Eclipse Ti) and the amount of phosphorylation was quantified as mean intensity using brightspot detection of quadruplet images of the whole well and normalized to the vehicle control (0.1% DMSO).

Structure (SMILES): O=C(NCCN=C=S)c1c(-c2ccc3ccccc3c2)nc2sccn12 [DL7076, N-(2-Isothiocyanatoethyl)-6-(naphthalen-2-yl)imidazo[2,1-b]thiazole-5-carboxamide]
- CYP2B6 protein induction (CYP2B6): clear preferential induction of CYP2B6
- cytotoxicity without DOX (H9c2 cells [1]; H9c2, 1, 5, 10 μM): no cytotoxicity
- reversal of DOX-induced cardiotoxicity (viability) (H9c2 cells [1]; H9c2, 2 h pretreatment, 22 h cotreatment with DOX 2.5 μM): concentration dependent reversal in the DOX-induced cardiotoxicity
- H2AX phosphorylation (DNA damage) (H9c2 cells [2]): a measured decrease in histone H2A phosphorylation

Reference: US20230134760A1, “CAR AND NRF2 DUAL ACTIVATOR AGENTS FOR CYCLOPHOSPHAMIDE-BASED AND DOXORUBICIN-BASED TREATMENTS OF CANCER” (priority 2020, published 2023)
